Tests used:
[1] = target: T1, human FAAH (Fatty Acid Amide Hydrolase) (Homo sapiens (Human), UniProt O00519); assay: FAAH inhibition, human FAAH CHO cell lysate (AAMCA fluorescence); type: biochemical
Source text: (§1) To assist in assay development stable cell lines for human, murine and rat full length FAAH were developed. […] The full length FAAH was subcloned into the mammalian expression vector, pcDEF.neo, using XbaI and EcoRI restriction sites and used for stable cell line generation.
(§2) The full length murine FAAH was subcloned into the mammalian expression vector, pcDEFneo using either EcoRI (murine) or KpnI and EcoRI (rat) restriction sites. Chinese hamster ovary cells (CHO) were transfected following manufacturers protocol (AMAXA). Forty eight hours post transfection, cells were trypsinized and transferred to 96 well plates in Iscove's DMEM media supplemented with 2 mM Glutamine, 10% fetal calf serum, 1 mg/ml geneticin and HT Supplement (0.1 mM sodium hypoxanthine, 0.016 mM thymidine) in order to isolate single clones. […] Following removal of tissue culture media cells were dislodged following addition of Cellstripper (Mediatech, Inc. Manassas, Va.) and transferred to 96 well black clear bottom assay plate, centrifuged at 1,000 rpm for 3 mins and media removed and replaced with assay buffer (50 mM Tris pH8.0, 1 mM EDTA, 0.1% fatty acid free BSA). The reaction was initiated by addition of fluorescent substrate, AMC Arachidonoyl Amide (Cayman Chemical, Ann Arbor, Mich.) to 1 μM and reaction allowed to proceed for 2 hours at room temperature. Release of fluorescence was monitored in a CytoFluor Multiplate Reader.
CHO cells expressing FAAH were used to prepare either crude cell lysate or microsome fractions. To harvest cells, tissue culture media was decanted, the monolayer washed three times with Ca^++Mg^++ free PBS and cells recovered after 15 min in enzyme free dissociation media (Millipore Corp, Billerica, Mass.). Cells were collected by centrifuging at 2000 rpm for 15 min, and the cell pellet re-suspended with 50 mM HEPES (pH 7.4) containing 1 mM EDTA and the protease inhibitors aprotinin (1 mg/ml) and leupeptin (100 μM). The suspension was sonicated at 4° C. and the cell lysate recovered after centrifuging at 12,000×g (14,600 rpm, SS34 rotor) for 20 min at 4° C. to form a crude pellet of cell debris, nuclei, peroxisomes, lysosomes, and mitochondria; the supernatant or cell lysate was used for FAAH enzyme assay. In some eases, microsomes fractions enriched in FAAH were prepared by centrifuging the cell lysate further at 27,000 rpm (100,000×g) in SW28 rotor for 50 minutes at 4° C. The pellet containing FAAH-enriched microsomes was re-suspend in 50 mM HEPES, (pH 7.4) 1 mM EDTA, and any remaining DNA sheared by passage of material through a 23 gauge needle and aliquots of enzyme were store at −80° C. prior to use.
(§3) Assays are performed on either cell lysate or microsome fractions prepared as described or in whole cell format employing either the fluorescent substrate AAMCA (Cayman chemical, Ann Arbor, Mich.,) or ^3H-anandamide ([ETHANOLAMINE-1-3H] American Radiolabeled Chemicals; 1 mCi/ml). […] AAMCA substrate was used to achieve a final concentration of 1 μM and reaction allowed to proceed at room temperature for 1-3 hours. […] Whole cell assay is conducted with cells harvested after rinsing tissue culture flasks three times with Ca^++Mg^++ free PBS, incubating for 10 min in Enzyme free dissociation media and centrifuging for 5 minutes at 1,000 rpm in table top centrifuge. Cells are resuspended in assay buffer at desired cell number in (4×10^4 cells/assay in 96-well format; 1×10^4 cells/assay in 384-well format) and assayed as described.
Alternatively, assays are performed using anandamide [ethanolamine 1-^3H] (specific activity of 10 Ci/mmol) diluted with cold anandamide to achieve a final assay concentration of 1 μM anandamide (˜50,000 cpm). Enzyme (CHO cell lysate, brain or liver homogenate) is incubated in assay buffer (50 mM Phosphate, pH 8.0, 1 mM EDTA, 200 mM KCl, 0.2% glycerol, 0.1% fatty acid free BSA) with inhibitor at 25° C. for 30 minutes.

[2] = target: T1, human FAAH (Fatty Acid Amide Hydrolase); assay: FAAH inhibition, human FAAH CHO whole cell format; type: cell-based
Source text: as §1, §2, §3

T1 sequence (O00519 whole entry): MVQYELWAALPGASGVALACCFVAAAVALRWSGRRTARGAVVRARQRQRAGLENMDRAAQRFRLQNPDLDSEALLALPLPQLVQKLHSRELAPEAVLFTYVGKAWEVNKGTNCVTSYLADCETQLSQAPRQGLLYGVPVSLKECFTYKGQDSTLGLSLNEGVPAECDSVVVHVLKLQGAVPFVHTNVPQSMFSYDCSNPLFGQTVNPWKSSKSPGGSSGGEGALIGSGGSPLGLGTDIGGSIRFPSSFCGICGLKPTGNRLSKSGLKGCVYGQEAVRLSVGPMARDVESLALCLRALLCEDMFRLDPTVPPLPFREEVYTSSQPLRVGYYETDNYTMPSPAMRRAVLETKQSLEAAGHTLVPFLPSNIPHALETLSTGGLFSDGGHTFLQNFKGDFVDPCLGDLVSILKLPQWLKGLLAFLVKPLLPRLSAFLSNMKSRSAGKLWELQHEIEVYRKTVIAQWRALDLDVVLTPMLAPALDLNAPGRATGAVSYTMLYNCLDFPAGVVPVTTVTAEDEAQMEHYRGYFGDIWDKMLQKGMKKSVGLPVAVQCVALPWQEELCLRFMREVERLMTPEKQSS

Compound | IC50 [1] | IC50 [2]
CCOC(=O)N1CCC(c2nc(-c3ccc([S+](C)[O-])cc3)c(Sc3ccc(Cl)cn3)o2)CC1 (stereo not drawn) [Example A7.23, ethyl 4-{5-[(5-chloropyridin-2-yl)sulfanyl]-4-[4-(methylsulfinyl)phenyl]-1,3-oxazol-2-yl}piperidine-1-carboxylate] | 61.7 nM | 436 nM
COCCOC(=O)N1CCC(c2nc(-c3ccc([S+](C)[O-])cc3)c(Sc3ccc(Cl)cn3)o2)CC1 (stereo not drawn) [Example A7.24, 2-methoxyethyl 4-{5-[(5-chloropyridin-2-yl)sulfanyl]-4-[4-(methylsulfinyl)phenyl]-1,3-oxazol-2-yl}piperidine-1-carboxylate] | 200 nM | 1330 nM
COCCOCC(=O)N1CCC(c2nc(-c3ccc([S+](C)[O-])cc3)c(Sc3ccc(Cl)cn3)o2)CC1 (stereo not drawn) [Example A7.25, 1-(4-{5-[(5-chloropyridin-2-yl)sulfanyl]-4-[4-(methylsulfinyl)phenyl]-1,3-oxazol-2-yl}piperidin-1-yl)-2-(2-methoxyethoxy)ethanone] | 525 nM | 4670 nM
COCCOCCOCC(=O)N1CCC(c2nc(-c3ccc([S+](C)[O-])cc3)c(Sc3ccc(Cl)cn3)o2)CC1 (stereo not drawn) [Example A7.26] | 748 nM | 6550 nM
C[S+]([O-])c1ccc(-c2nc(C3CCN(C(=O)OCCN4CCOCC4)CC3)oc2Sc2ccc(Cl)cn2)cc1 (stereo not drawn) [Example A7.27, 2-(morpholin-4-yl)ethyl 4-{5-[(5-chloropyridin-2-yl)sulfanyl]-4-[4-(methylsulfinyl)phenyl]-1,3-oxazol-2-yl}piperidine-1-carboxylate] | 482 nM | 5010 nM
CN(C)CCOC(=O)N1CCC(c2nc(-c3ccc([S+](C)[O-])cc3)c(Sc3ccc(Cl)cn3)o2)CC1 (stereo not drawn) [Example A7.29, 2-(dimethylamino)ethyl 4-{5-[(5-chloropyridin-2-yl)sulfanyl]-4-[4-(methylsulfinyl)phenyl]-1,3-oxazol-2-yl}piperidine-1-carboxylate] | 1910 nM | ≥ 10000 nM
C[S+]([O-])c1ccc(-c2nc(C3CCN(C(=O)OCCNCCO)CC3)oc2Sc2ccc(Cl)cn2)cc1 (stereo not drawn) [Example A7.30, 2-[(2-hydroxyethyl)amino]ethyl 4-{5-[(5-chloropyridin-2-yl)sulfanyl]-4-[4-(methylsulfinyl)phenyl]-1,3-oxazol-2-yl}piperidine-1-carboxylate] | 2140 nM | ≥ 10000 nM
Clc1ccc(Sc2oc(C3CCOCC3)nc2C2CCNCC2)nc1 [Example A7.31, 5-chloro-2-{[4-(piperidin-4-yl)-2-(tetrahydro-2H-pyran-4-yl)-1,3-oxazol-5-yl]sulfanyl}pyridine] | 10000 nM | ≥ 10000 nM
Clc1ccc(Sc2oc(C3CCOCC3)nc2-c2ccc(N3CCOCC3)nc2)cc1 [Example B5.3, 4-(5-{5-[(4-chlorophenyl)sulfanyl]-2-(tetrahydro-2H-pyran-4-yl)-1,3-oxazol-4-yl}pyridin-2-yl)morpholine] | 12.8 nM | 38.5 nM
Clc1ccc(Sc2oc(C3CCOCC3)nc2-c2cnn(CC3OCCO3)c2)cc1 [Example B5.5, 5-[(4-chlorophenyl)sulfanyl]-4-[1-(1,3-dioxolan-2-ylmethyl)-1H-pyrazol-4-yl]-2-(tetrahydro-2H-pyran-4-yl)-1,3-oxazole] | 255 nM | 1050 nM
Clc1ccc(Sc2oc(C3CCOCC3)nc2-c2cn[nH]c2)cc1 [Example B5.8, 5-[(4-chlorophenyl)sulfanyl]-4-(1H-pyrazol-4-yl)-2-(tetrahydro-2H-pyran-4-yl)-1,3-oxazole] | 146 nM | 737 nM
Clc1ccc(Sc2oc(C3CCOCC3)nc2-c2ccc(N3CCNCC3)nc2)cc1 [Example B5.9, 1-(5-{5-[(4-chlorophenyl)sulfanyl]-2-(tetrahydro-2H-pyran-4-yl)-1,3-oxazol-4-yl}pyridin-2-yl)piperazine] | 9.61 nM | 115 nM
CN(C)c1ncc(-c2nc(C3CCOCC3)oc2Sc2ccc(Cl)cc2)cn1 [Example B5.11, 5-{5-[(4-chlorophenyl)sulfanyl]-2-(tetrahydro-2H-pyran-4-yl)-1,3-oxazol-4-yl}-N,N-dimethylpyrimidin-2-amine] | 13.1 nM | 36.9 nM
COC(=O)Cn1cc(-c2nc(C3CCOCC3)oc2Sc2ccc(Cl)cc2)cn1 [Example B5.13, methyl (4-{5-[(4-chlorophenyl)sulfanyl]-2-(tetrahydro-2H-pyran-4-yl)-1,3-oxazol-4-yl}-1H-pyrazol-1-yl)acetate] | 320 nM | 847 nM
Clc1ccc(Sc2oc(C3CCOCC3)nc2C2=CCCNC2)cc1 [Example B5.15, 5-{5-[(4-chlorophenyl)sulfanyl]-2-(tetrahydro-2H-pyran-4-yl)-1,3-oxazol-4-yl}-1,2,3,6-tetrahydropyridine] | 4530 nM | ≥ 10000 nM
C[S+]([O-])c1ccc(-c2nc(C3=CCCCC3)oc2Sc2ccc(Cl)cc2)cc1 (stereo not drawn) [Example C6.1, 5-[(4-chlorophenyl)sulfanyl]-2-(cyclohex-1-en-1-yl)-4-[4-(methylsulfinyl)phenyl]-1,3-oxazole] | 11.9 nM | 105 nM
C[S+]([O-])c1ccc(-c2nc(C3=CCC(O)CC3)oc2Sc2ccc(Cl)cc2)cc1 (stereo not drawn) [Example C6.2, 4-{5-[(4-Chlorophenyl)sulfanyl]-4-[4-(methylsulfinyl)phenyl]-1,3-oxazol-2-yl}cyclohex-3-en-1-ol] | 8.68 nM | 47.2 nM

Results, then the compound that gave them:

IC50 [1] | IC50 [2] | Compound
17.9 nM | 45.1 nM | CC(C)(O)c1ccc(-c2nc(C3CCOCC3)oc2Sc2ccc(Cl)cc2)cn1 [Example B5.1, 2-(5-{5-[(4-chlorophenyl)sulfanyl]-2-(tetrahydro-2H-pyran-4-yl)-1,3-oxazol-4-yl}pyridin-2-yl)propan-2-ol]
4.19 nM | 10.9 nM | Clc1ccc(Sc2oc(C3CCOCC3)nc2-c2ccc3[nH]ncc3c2)cc1 [Example B5.2, 5-{5-[(4-chlorophenyl)sulfanyl]-2-(tetrahydro-2H-pyran-4-yl)-1,3-oxazol-4-yl}-1H-indazole]
27.6 nM | 63.8 nM | Clc1ccc(Sc2oc(C3CCOCC3)nc2-c2cnc3[nH]ccc3c2)cc1 [Example B5.4, 5-{5-[(4-chlorophenyl)sulfanyl]-2-(tetrahydro-2H-pyran-4-yl)-1,3-oxazol-4-yl}-1H-pyrrolo[2,3-b]pyridine]
118 nM | 421 nM | Clc1ccc(Sc2oc(C3CCOCC3)nc2-c2ccc3ncnn3c2)cc1 [Example B5.6, 6-{5-[(4-chlorophenyl)sulfanyl]-2-(tetrahydro-2H-pyran-4-yl)-1,3-oxazol-4-yl}[1,2,4]triazolo[1,5-a]pyridine]
92.2 nM | 169 nM | Cn1nnc2ccc(-c3nc(C4CCOCC4)oc3Sc3ccc(Cl)cc3)cc21 [Example B5.7, 6-{5-[(4-chlorophenyl)sulfanyl]-2-(tetrahydro-2H-pyran-4-yl)-1,3-oxazol-4-yl}-1-methyl-1H-benzotriazole]
67.6 nM | 98.1 nM | Clc1ccc(Sc2oc(C3CCOCC3)nc2-c2cnc3[nH]ncc3c2)cc1 [Example B5.10, 5-{5-[(4-chlorophenyl)sulfanyl]-2-(tetrahydro-2H-pyran-4-yl)-1,3-oxazol-4-yl}-1H-pyrazolo[3,4-b]pyridine]
113 nM | 279 nM | Clc1ccc(Sc2oc(C3CCOCC3)nc2-c2cnc3cc[nH]c3c2)cc1 [Example B5.12, 6-{5-[(4-chlorophenyl)sulfanyl]-2-(tetrahydro-2H-pyran-4-yl)-1,3-oxazol-4-yl}-1H-pyrrolo[3,2-b]pyridine]
